Laboratory results from publication PMC8812569, “A widely distributed phosphate-insensitive phosphatase presents a route for rapid organophosphorus remineralization in the biosphere” (Proceedings of the National Academy of Sciences of the …, 2022).

What was measured:
Experiment in all cases: pNP release at […] nm in whole cells of complemented P. putida phoX mutant
[1] = molecular target: T1, PhoA1^Fj (Flavobacterium johnsoniae, UniProt A5FEV6); assay type: cell-based, Pseudomonas putida; settings: 10 mM pNPP; growth medium or Tris-HCl pH 9.4; 28 °C
T1 construct: gene Fjoh_3249; full gene expressed from pBBR1MCS-km in P. putida BIRD-1 phoX mutant; whole-cell assay
T1 sequence (A5FEV6 19-607): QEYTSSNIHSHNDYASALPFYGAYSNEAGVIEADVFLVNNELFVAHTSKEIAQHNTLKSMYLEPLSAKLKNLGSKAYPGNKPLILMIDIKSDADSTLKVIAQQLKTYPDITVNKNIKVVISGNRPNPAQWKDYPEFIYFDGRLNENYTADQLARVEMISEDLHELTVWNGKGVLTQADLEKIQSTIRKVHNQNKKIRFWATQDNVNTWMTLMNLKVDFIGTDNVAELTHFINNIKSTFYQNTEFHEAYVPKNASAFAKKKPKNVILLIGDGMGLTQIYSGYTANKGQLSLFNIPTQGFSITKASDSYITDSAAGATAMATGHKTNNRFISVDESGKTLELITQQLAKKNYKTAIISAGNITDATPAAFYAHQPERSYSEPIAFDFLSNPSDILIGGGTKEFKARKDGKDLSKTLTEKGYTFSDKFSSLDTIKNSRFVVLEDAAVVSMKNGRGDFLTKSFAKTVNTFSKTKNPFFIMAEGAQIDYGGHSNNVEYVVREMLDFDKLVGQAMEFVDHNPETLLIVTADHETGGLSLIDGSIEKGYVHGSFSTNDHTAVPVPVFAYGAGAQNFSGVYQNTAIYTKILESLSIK

[2] = molecular target: T2, PafA^Fj (Flavobacterium johnsoniae, UniProt A5FP14); assay type: cell-based; settings: 10 mM pNPP; growth medium or Tris-HCl pH 9.4; 28 °C
T2 construct: gene Fjoh_0023; full gene expressed from pBBR1MCS-km in P. putida BIRD-1 phoX mutant; whole-cell assay
T2 sequence (A5FP14 19-539): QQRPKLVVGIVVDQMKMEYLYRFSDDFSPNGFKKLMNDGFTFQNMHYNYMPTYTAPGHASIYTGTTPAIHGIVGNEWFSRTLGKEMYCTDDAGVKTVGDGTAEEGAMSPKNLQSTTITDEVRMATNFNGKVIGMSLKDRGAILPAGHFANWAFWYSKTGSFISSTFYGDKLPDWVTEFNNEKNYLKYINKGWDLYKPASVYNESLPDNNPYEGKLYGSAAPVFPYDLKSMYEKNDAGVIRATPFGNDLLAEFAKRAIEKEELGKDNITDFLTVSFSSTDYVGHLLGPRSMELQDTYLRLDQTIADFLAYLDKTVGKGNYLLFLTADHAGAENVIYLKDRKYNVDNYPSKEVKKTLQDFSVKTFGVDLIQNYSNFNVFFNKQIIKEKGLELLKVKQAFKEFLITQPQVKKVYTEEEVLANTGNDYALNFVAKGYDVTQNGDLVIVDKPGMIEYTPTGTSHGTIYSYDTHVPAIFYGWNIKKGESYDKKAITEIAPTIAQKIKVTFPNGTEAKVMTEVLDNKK

[3] = molecular target: T3, PhoA2^Fj (Flavobacterium johnsoniae, UniProt A5FF14); assay type: cell-based; settings: 10 mM pNPP; growth medium or Tris-HCl pH 9.4; 28 °C
T3 construct: gene Fjoh_3187; full gene expressed from pBBR1MCS-km in P. putida BIRD-1 phoX mutant; whole-cell assay
T3 sequence (A5FF14 27-468): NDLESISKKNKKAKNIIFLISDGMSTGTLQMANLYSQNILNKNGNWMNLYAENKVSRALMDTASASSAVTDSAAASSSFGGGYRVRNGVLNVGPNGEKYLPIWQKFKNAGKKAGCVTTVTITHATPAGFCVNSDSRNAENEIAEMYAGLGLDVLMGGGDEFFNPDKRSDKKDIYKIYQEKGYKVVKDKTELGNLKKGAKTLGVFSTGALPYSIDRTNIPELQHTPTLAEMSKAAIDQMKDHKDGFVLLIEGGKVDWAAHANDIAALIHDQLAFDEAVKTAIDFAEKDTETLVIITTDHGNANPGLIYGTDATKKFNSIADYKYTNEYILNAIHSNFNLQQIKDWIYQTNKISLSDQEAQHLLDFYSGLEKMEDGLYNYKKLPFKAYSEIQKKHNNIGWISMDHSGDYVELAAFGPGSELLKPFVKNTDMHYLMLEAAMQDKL

[4] = molecular target: T4, PhoA^Ec (Escherichia coli, UniProt P00634); assay type: cell-based, Pseudomonas putida; settings: 10 mM pNPP; growth medium or Tris-HCl pH 9.4; 28 °C
T4 construct: full gene expressed in P. putida BIRD-1 phoX mutant; whole-cell assay

[5] = molecular target: T5, PafA^Cp2 (Chitinophaga pinensis, UniProt A0A979G1Z1); assay type: cell-based; settings: 10 mM pNPP
T5 construct: gene Cpin_1665; synthesized gene expressed in P. putida BIRD-1 phoX mutant; whole-cell assay
T5 sequence (A0A979G1Z1 29-568): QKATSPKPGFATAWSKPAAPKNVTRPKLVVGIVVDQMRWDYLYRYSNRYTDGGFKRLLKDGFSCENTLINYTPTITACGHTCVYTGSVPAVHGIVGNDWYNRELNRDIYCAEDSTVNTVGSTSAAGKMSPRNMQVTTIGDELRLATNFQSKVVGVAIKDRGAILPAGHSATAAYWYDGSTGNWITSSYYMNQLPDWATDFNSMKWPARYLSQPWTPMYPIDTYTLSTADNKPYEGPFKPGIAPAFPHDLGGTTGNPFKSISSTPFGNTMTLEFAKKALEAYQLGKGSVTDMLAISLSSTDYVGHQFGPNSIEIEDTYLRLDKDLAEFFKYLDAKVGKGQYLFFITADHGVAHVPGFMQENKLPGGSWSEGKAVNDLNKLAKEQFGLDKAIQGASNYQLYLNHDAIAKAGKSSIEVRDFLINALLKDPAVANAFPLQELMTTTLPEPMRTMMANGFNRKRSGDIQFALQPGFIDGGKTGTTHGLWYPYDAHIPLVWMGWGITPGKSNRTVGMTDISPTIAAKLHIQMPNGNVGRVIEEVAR

[6] = molecular target: T6, PafA^Cp1 (Chitinophaga pinensis, UniProt A0A979GMC5); assay type: cell-based; settings: 10 mM pNPP
T6 construct: gene Cpin_0724; synthesized gene expressed in P. putida BIRD-1 phoX mutant; whole-cell assay
T6 sequence (A0A979GMC5 26-545): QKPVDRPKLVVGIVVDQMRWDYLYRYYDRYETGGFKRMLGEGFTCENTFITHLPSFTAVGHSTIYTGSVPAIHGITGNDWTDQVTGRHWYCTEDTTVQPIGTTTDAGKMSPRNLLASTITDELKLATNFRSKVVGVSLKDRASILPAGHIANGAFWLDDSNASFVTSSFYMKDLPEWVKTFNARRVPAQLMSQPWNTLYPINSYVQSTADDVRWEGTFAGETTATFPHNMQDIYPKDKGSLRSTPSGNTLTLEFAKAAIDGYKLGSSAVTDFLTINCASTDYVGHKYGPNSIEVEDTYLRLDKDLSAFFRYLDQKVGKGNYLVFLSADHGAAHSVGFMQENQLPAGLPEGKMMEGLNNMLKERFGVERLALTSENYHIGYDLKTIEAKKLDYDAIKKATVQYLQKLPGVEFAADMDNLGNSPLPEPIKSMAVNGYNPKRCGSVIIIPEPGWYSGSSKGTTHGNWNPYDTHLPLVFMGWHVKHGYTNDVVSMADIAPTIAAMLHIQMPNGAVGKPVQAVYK

T4 sequence (P00634 22-471): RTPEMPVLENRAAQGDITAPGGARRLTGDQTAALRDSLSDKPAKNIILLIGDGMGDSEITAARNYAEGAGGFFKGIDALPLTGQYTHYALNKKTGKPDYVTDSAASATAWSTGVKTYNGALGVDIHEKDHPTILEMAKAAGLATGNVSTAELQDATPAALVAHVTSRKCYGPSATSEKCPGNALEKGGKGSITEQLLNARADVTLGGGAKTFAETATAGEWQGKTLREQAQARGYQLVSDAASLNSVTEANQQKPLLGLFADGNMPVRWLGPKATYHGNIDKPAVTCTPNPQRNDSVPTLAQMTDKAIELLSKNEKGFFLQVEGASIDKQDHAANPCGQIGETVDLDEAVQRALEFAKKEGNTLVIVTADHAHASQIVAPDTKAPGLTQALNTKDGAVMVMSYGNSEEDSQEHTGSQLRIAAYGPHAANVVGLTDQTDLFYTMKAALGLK

O=[N+]([O-])c1ccc(OP(=O)(O)O)cc1 [para-nitrophenyl phosphate]
PME activity [1]: cells producing PhoA1^Fj (+pBXphoA1^Fj), PhoA2^Fj (+pBXphoA2^Fj), or PafA^Fj (+pBXpafA^Fj) also restored PME activity
PME activity [2]: or PafA^Fj (+pBXpafA^Fj) also restored PME activity, confirming their function as PMEs
PME activity [3]: cells producing PhoA1^Fj (+pBXphoA1^Fj), PhoA2^Fj (+pBXphoA2^Fj), or PafA^Fj (+pBXpafA^Fj) also restored PME activity
PME activity [4]: Plasmid copies of either phoX^BIRD (+pBXphoX^BIRD) or the E. coli phoA (+pBXphoA^Ec) restored PME activity
PME activity [5]: demonstrating both are functional Pi-insensitive PMEs
PME activity [6]: demonstrating both are functional Pi-insensitive PMEs
